Bounds are passed on as bounds.

This is an account of results in patent US9938240B2, “Fluorinated derivatives of 3-hydroxypyridin-4-ones” (Apotex Technologies Inc., priority 2009, dated 2018).

The subject of series [1] is human neuroblastoma MC-65 cells. Put plainly: cells. To be noted: for EC100 / minimal effective concentration: Homo sapiens, MC65, 48 h; for EC100: read-out: EC100 (maximum effective concentration); for minimal effective concentration: read-out: TH (threshold protective concentration); for CC2 (cytotoxic concentration): MC-65, cultured without tetracycline; for CC2 (cytotoxic concentration) / CC1 (cytotoxic concentration): viability below 80%; for CC1 (cytotoxic concentration): MC-65, presence of TET. In short, it runs like this: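 MC-65 cells (conditional Aβ fusion-protein expression, TET-repressed) were washed free of TET and FBS, then exposed to compound ~48 h in serum-free medium without or with 1 μg/mL TET.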

Series [2] can be described thus: Benzoic acid hydroxylation assay. The conditions noted are these: benzoic acid 1 mM, H2O2 6 mM, FeCl3 30 μM, chelator 30 μM, pH 7.4, up to 81 h. The text has this: Benzoic acid is a hydroxyl radical scavenger and reacts with hydroxyl radical to give 2-hydroxy, 3-hydroxy and 4-hydroxybenzoic acids. The benzoic acid hydroxylation assay is a chemical assay designed to detect damage caused by hydroxyl radical (Dean and Nicholson, Free Radical Research 1994, vol 20, 83-101). For example, deferiprone suppresses the formation of hydroxybenzoic acids in the presence of iron salts and hydrogen peroxide, while EDTA and iron salts allow such hydroxylation reactions to take place.
This screening assay involves the use of iron salt, benzoic acid, hydrogen peroxide and the chelator and measures the ability of the chelator to inhibit the formation of hydroxybenzoate as an indicator to prevent hydroxyl radical formation in living system.
Briefly, this procedure is based on the ability of hydroxyl radicals to hydroxylate benzoate to give 2-, 3- and 4-hydroxylated benzoic acid products. Benzoic acid (1 mM) is incubated over time up to 81 h at room temperature in the dark in 10 mM phosphate buffer (pH 7.4) with 6 mM hydrogen peroxide, ferric chloride (30 μM) and the Fe chelator (30 μM). HPLC is the method of choice used to monitor and quantify the amount of 2-, 3- and 4-hydroxylated products formed over time in the reaction mixture, and can be verified against authentic benzoic acid and its hydroxylated products via their respective retention times and areas under curve. In addition, several controls are used: (i) a control without added Fe stock solution and Fe chelator; (ii) a control without added Fe chelator; (iii) EDTA as positive control; and (iv) deferiprone as negative control. The Fe-EDTA system is a hydroxyl radical generator and is known to promote hydroxylation of benzoic acid.

Series [3] in a line: Stoichiometry of Fe-complexes by Job's method. Format: physicochemical. The conditions noted are these: 0.1 M MOPS pH 7.4, absorbance at 458 nm. The protocol:
In a typical experiment Fe-Apo7053 complex solutions were prepared by mixing a stock solution of Fe^2+ (atomic absorption standard, 989 μg/mL in 1 wt % HCl, Aldrich) and a stock solution of Apo7053 (7.88×10^−3 M in 0.1 M MOPS, pH 7.4). Twelve sample solutions were prepared. While the sum of the total iron concentration ([iron]total) and the total ligand concentration ([L]total) in each of the 12 sample solutions were kept constant (8.00×10^−4 M), the molar fraction of the ligand, α (α=[L]total/([L]total+[iron]total)), for the 12 sample solutions were different, and were prepared as 0.0, 0.1, 0.2, 0.3, 0.4, 0.5, 0.6, 0.7, 0.75, 0.8, 0.9 and 1.0, respectively. The total volume for each of the 12 sample solutions was 5 mL, using MOPS (0.1 M, pH 7.4) as the solvent. The pH of the 12 solutions were adjusted to pH 7.4 with NaOH. The sample solutions were vortexed at rt for 2.5 h, and then stayed at rt overnight. The sample solutions were centrifuged at 4000 rpm for 15 min. The UV-Vis spectrum was recorded at 22° C. for each of the 12 solutions.
A Job's plot was created with the absorbance at 458 nm as the y-axis and α as the x-axis. A maximum absorbance was found at α=0.75, which corresponds to an iron:ligand ratio of 1:3 in the complexes.

Series [4] deals with SH-SY5Y human neuroblastoma cells. In outline: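 SH-SY5Y cells were treated with a range of compound concentrations, with or without 50 μM H2O2, in serum-free medium for 16–22 h. Viability was measured by MTT and expressed relative to cells receiving neither H2O2 nor compound. Runs without H2O2 assessed cytotoxicity.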
Series [5] can be described thus: Cyclic voltammetry of iron complexes. Format: physicochemical.
The conditions of series [6]: versus Ag/AgCl, Crumbliss et al. 2003; cited from earlier work.
The mark [7] stands for this setting: 0.1M aqueous NaCl, pH 7.4, vs. Ag/AgCl.

As to `CN(C)c1c(O)c(=O)cc(CC(F)(F)F)n1C` [Apo7077, 2-(dimethylamino)-3-hydroxy-1-methyl-6-(2,2,2-trifluoroethyl)pyridin-4(1H)-one], in series [1], the EC100 was 10 µM, the minimal effective concentration turned out to be 1 µM, the “CC2 (cytotoxic concentration)” value is 80 µM and the “CC1 (cytotoxic concentration)” value stood at 80 µM. The “hydroxylation of benzoic acid by Fe chelate” value in series [2] was “do not promote the hydroxylation of benzoic acid”.
As to `Cc1c(O)c(=O)c(C(N(C)C)C(F)(F)F)cn1C` (centres unmarked) [Apo7053, 5-[1-(dimethylamino)-2,2,2-trifluoroethyl]-3-hydroxy-1,2-dimethylpyridin-4(1H)-one], in series [1], the EC100 is 10 µM, the minimal effective concentration amounted to 0.1 µM, the “CC2 (cytotoxic concentration)” value amounted to 20 µM and the “CC1 (cytotoxic concentration)” value was 40 µM. The “molar fraction of ligand α at maximum absorbance (Job's plot)” value in series [3] is reported as 0.75. Moreover, the “CC2 (cytotoxic concentration)” value in series [4] (H2O2-treated cells, viability below 80%) was over 640 µM. The “CC1 (cytotoxic concentration)” value in series [4] (absence of H2O2, viability below 80%) is 2.2 µM. The “hydroxylation of benzoic acid by Fe chelate” value in series [2] is given as “do not promote the hydroxylation of benzoic acid”.
Consider `CC(=O)N([O-])CCCCCNC(=O)CCC(=O)N([O-])CCCCCNC(=O)CCC(=O)N([O-])CCCCCN.[Fe+3]` [FeDFO], for which, in series [5] (0.1M aqueous NaCl, pH 7.4), the “E1/2 vs. Ag/AgCl” value was −698 mV, the “E1/2 vs. NHE” value is listed as −478 mV and the ΔE is given as 112 mV. Also, in series [5] (setting [7]), the Eox is on record as −642 mV and the Ered was −754 mV. Also, the “redox potential E1/2 (vs. NHE)” value in series [5] (pH 7.4, as quoted) is recorded as −480 my. The E1/2 literature value in series [6] was −688 mV.
